Reference: patent publication US11207371B2, “Composition for improving or preventing nonalcoholic fatty liver” (KOHJIN LIFE SCIENCES CO., LTD., priority 2015, dated 2021)

Columns and labels:
[1] = test system: subjects who had NAFLD in 31 IU/L or more of ALT; settings: Case IDs 1 to 9 (group affected); at least one week after initiation; glutathione 300 mg per day orally
[2] = test system: Mice (C57/B6J, 8 weeks old male) fed with high-fat food
Description: Mice (C57/B6J, 8 weeks old male) were divided into 4 groups (5 animals each), and the first group (DB) was freely fed with ordinary food (Certified Diet “MF” manufactured by Oriental Yeast Co., ltd.). The second group (HFD) was freely fed with high-fat food (High Fat Diet 32, manufactured by CLEA Japan, Inc.), […].
When the mouse was 20 weeks old, the body weight, the liver weight, the serum aspartate aminotransferase (AST), the alanine aminotransferase (ALT), the serum triglyceride (TG), the free fatty acid value (FFA) and the total cholesterol value (T-cho) were measured.

## N[C@@H](CCC(=O)N[C@@H](CS)C(=O)NCC(=O)O)C(=O)O [glutathione]
[1]
  improvement of ALT after the administration versus before initiation (0 wk): ≥ 20%
[2]; HFD6 (6 mg/kg/day) and HFD60 (60 mg/kg/day) groups in comparison to the HFD group, 20 weeks old, concentration dependent, FIG. 5A
  serum AST: significant decrease
[2]; HFD6 (6 mg/kg/day) and HFD60 (60 mg/kg/day) groups in comparison to the HFD group, 20 weeks old, concentration dependent, FIG. 5B
  serum ALT: significant decrease
[2]; HFD6 (6 mg/kg/day) and HFD60 (60 mg/kg/day) groups in comparison to the HFD group, 20 weeks old, concentration dependent, FIG. 6A
  serum TG (triglyceride value): significant decrease
[2]; HFD6 (6 mg/kg/day) and HFD60 (60 mg/kg/day) groups in comparison to the HFD group, 20 weeks old, concentration dependent, FIG. 6B
  serum FFA (free fatty acid value): significant decrease
[2]; HFD6 (6 mg/kg/day) and HFD60 (60 mg/kg/day) groups in comparison to the HFD group, 20 weeks old, concentration dependent, FIG. 6C
  serum T-cho (total cholesterol value): significant decrease
[2]; all of the groups (DB, HFD, HFD6, HFD60), FIG. 3A
  consumption amount of feed: no significant difference
[2]; all of the groups (DB, HFD, HFD6, HFD60), FIG. 3B
  consumption amount of water: no significant difference
[2]; high-fat food mice, glutathione 6 and 60 mg/kg/day in water, 20 weeks old, FIG. 4A
  liver weight: decreased dependently on the concentration
[2]; high-fat food mice, glutathione 6 and 60 mg/kg/day in water, 20 weeks old, FIG. 4B
  ratio of liver weight/body weight: decrease of the body weight ratio was also recognized
[2]; high-fat food mice, glutathione 6 and 60 mg/kg/day in water, concluded from liver weight
  deposition of fat on the liver by high-fat food: suppressed
[2]; high-fat food mice, glutathione 6 or 60 mg/kg/day in water, FIGS. 1 and 2
  body weight: decrease of the body weight was recognized
